Laboratory results published in patent publication US4952578A, “Cephem compound and a process for preparation thereof” (Fujisawa Pharmaceutical Co., Ltd., priority 1987, dated 1990).
Values after ≈ are worked out from the molar mass of the structure shown.

Test system: P. aeruginosa 26
Assay: In vitro antibacterial activity (MIC) by two-fold agar-plate dilution method
Assay type: cell-based
Settings: Pseudomonas aeruginosa, HI-agar, 37° C., 20 hours, read-out: MIC (minimal inhibitory concentration)
Protocol: Now in order to show the utility of the object compound [I], the test data on MIC (minimal inhibitory concentration) of representative compound [I] of this invention is shown in the following.
In vitro antibacterial activity was determined by the two-fold agar-plate dilution method as described below.
One loopful of an overnight culture of each test strain in Trypticase-soy broth (10^8 viable cells per ml) was streaked on heart infusion agar (HI-agar) containing graded concentrations of representative test compound, and the minimal inhibitory concentration (MIC) was expressed in terms of μg/ml after incubation at 37° C. for 20 hours.

- MIC: 0.39 µg/mL (≈ 0.746 µM)
Compound: CO/N=C(\C(=O)N[C@@H]1C(=O)N2C(C(=O)[O-])=C(C[n+]3ccc(N)n3CCO)CS[C@H]12)c1csc(N)n1 [Test Compound (1), 7β-[2-(2-Aminothiazol-4-yl)-2-methoxyiminoacetamido]-3-[3-amino-2-(2-hydroxyethyl)-1-pyrazolio]methyl-3-cephem-4-carboxylate (syn isomer)]
